pIC50: −log10 of the molar value. Where only a bound is given, the exact number is not on record here.

The assay has as its system 422866-222-R5-J1-PDC complex spheroids viability. Description: Anticancer human tumor 422866-222-R5-J1-PDC patient-derived pancreatic adenocarcinoma cell line growth inhibition [RAS]. The conditions noted are these: for viability, T/C: stronger effect = lower value. The source says:
RAS pathway inhibitors in Combinations in Complex Spheroids
A high-throughput screen of multi-cell type tumor spheroids was designed to identify active combinations of RAS pathway inhibitors and targeted small molecules. Complex spheroids include a stromal component modeled by human endothelial cells (HUVEC) and fibroblasts modeled by human mesenchymal stem cells (MSCs). The concentration ranges selected for each drug and investigational agent were based upon clinically achievable concentrations if the clinical Cmax of the agent was known.
Compounds. The drugs and investigational agents: abemaciclib (NSC768073), cobimetinib (NSC768068), divarasib (GDC6063, NSC841802), docetaxel (NSC628503), GDC-1971 (RLY-1971, NSC841576), gemcitabine (NSC613327), inavolisib (NSC800729), ipatasertib (NSC767898), KB-0742 (NSC834161), MRTX-1133 (NSC836407), osimertinib (NSC779217), RMC-4630 (NSC839698), RMC-6236 (NSC851965), RMC-6291 (NSC852671), Ro-3306 (NSC812927), sapanisertib (NSC764658), SN-38 (NSC673596), staurosporine (NSC755774), SY5609 (NSC837396), and tovorafenib (DAY101, NSC766906), were obtained from the National Cancer Institute (NCI) Developmental Therapeutics Program Chemical Repository. The FDA-approved anticancer drug set is available from the NCI Developmental Therapeutics Program. […] The stock solutions were prepared in dimethyl sulfoxide (DMSO, Sigma-Aldrich, St. Louis, MO, cat. D2650) at 800-fold the tested concentration and stored at -70 degrees C prior to their use. All drugs and investigational agents were tested over a range starting from a high concentration at or near the clinical Cmax and decreasing in half-log increments. If the clinical Cmax for an agent had not been determined, the highest concentration tested was 10 microM.
Cell Culture. All cells were maintained in an incubator at 37 degrees C and 5% CO2 with 95% humidity. The PDC lines were cultured according to standard operating procedures established by the NCI PDMR. All PDCs were thawed and cultured in Matrigel-coated flasks prepared with a working solution of 1X Ham's F-12 nutrient mix, without supplementation (Invitrogen, Waltham, MA, cat. 11765054), 100 U/mL penicillin-streptomycin (Invitrogen, cat. 15140122), and 2.5% Matrigel (Corning Inc., Corning, NY, cat. 354248) for the first three passages. The 362531-283-R-J2-PDC and 782815-120-R-J1-PDC lines were cultured in 6C/Colon 1B media, which includes advanced DMEM/F-12 (Thermo Fisher Scientific, cat. 12634028), 10 mM HEPES (Thermo Fisher Scientific, cat. 15630080), 1X GlutaMAX supplement (Thermo Fisher Scientific, cat. 35050061), 0.1 mg/mL primocin (InvivoGen, San Diego, CA, cat. ant-pm-2), 10% defined fetal bovine serum, heat inactivated (HyClone Laboratories Inc., Logan, UT, cat. SH30070.03HI), 50% L-WRN conditioned media (ATCC, cat. CRL-3276), 1.25 mM N-Acetyl-L-cysteine (Sigma-Aldrich, cat. A9165), 10 mM nicotinamide (Sigma-Aldrich, cat. N0636), 1X B-27 supplement (Thermo Fisher Scientific, cat. 17504044), 1X N-2 supplement (Thermo Fisher Scientific, cat. 17502048), 50 ng/mL human EGF (Thermo Fisher Scientific, cat. PHG0311), and 10 microM Y-27632 dihydrochloride (Tocris Bioscience, cat. 1254). The K12877-001-R-J1-PDC line was cultured in 6I media, which includes all 6C/Colon 1B media plus 10 ng/mL human FGF-10 (PeproTech, cat. 100-26), 1 ng/mL human FGF-2 (PeproTech, cat. 100-18B), 1 µM prostaglandin E2 (Tocris Bioscience, cat. 2296), […] hydrocortisone (Sigma-Aldrich, cat. H4001), and […] bovine insulin (Sigma-Aldrich, cat. I6634). The K86415-001-R-J1-PDC line was cultured in 6D media, which includes all 6C/Colon 1B media components minus the L-WRN conditioned media. The 485176-168-R4-J1-PDC was cultured in PANC media, which includes all 6C/Colon 1B media plus 100 ng/mL human FGF-10 (PeproTech, cat. 100-26), 500 nM SB-431542 (Selleckchem, cat. S1067), and 10 nM gastrin (Tocris Bioscience, cat. 3006). […]

[1] abbreviates: curve of first compound, second compound 0.000949 µM.
[2] abbreviates: curve of first compound, second compound 0.003 µM.
Setting [3] is: curve of first compound, second compound 0.00949 µM.
The mark [4] stands for this setting: curve of first compound, second compound 0.03 µM.
The mark [5] stands for this setting: curve of first compound, second compound 0.0949 µM.
Where [6] appears, read: curve of first compound, second compound 0.3 µM.
Setting [7] is: second compound 0.000949 µM, first compound 0.0316 µM.
The mark [8] stands for this setting: second compound 0.000949 µM, first compound 0.1 µM.
Setting [9] is: second compound 0.000949 µM, first compound 0.316 µM.
Setting [10] is: second compound 0.000949 µM, first compound 1 µM.
[11] abbreviates: second compound 0.000949 µM, first compound 3.16 µM.
[12] abbreviates: second compound 0.000949 µM, first compound 10 µM.
Where [13] appears, read: second compound 0.003 µM, first compound 0.0316 µM.
[14] abbreviates: second compound 0.003 µM, first compound 0.1 µM.
[15] abbreviates: second compound 0.003 µM, first compound 0.316 µM.
Where [16] appears, read: second compound 0.003 µM, first compound 1 µM.
Setting [17] is: second compound 0.003 µM, first compound 3.16 µM.
Where [18] appears, read: second compound 0.003 µM, first compound 10 µM.
[19] abbreviates: second compound 0.00949 µM, first compound 0.0316 µM.
The mark [20] stands for this setting: second compound 0.00949 µM, first compound 0.1 µM.
Where [21] appears, read: second compound 0.00949 µM, first compound 0.316 µM.
Where [22] appears, read: second compound 0.00949 µM, first compound 1 µM.
The mark [23] stands for this setting: second compound 0.00949 µM, first compound 3.16 µM.
Where [24] appears, read: second compound 0.00949 µM, first compound 10 µM.
Where [25] appears, read: second compound 0.03 µM, first compound 0.0316 µM.
Setting [26] is: second compound 0.03 µM, first compound 0.1 µM.
[27] abbreviates: second compound 0.03 µM, first compound 0.316 µM.
[28] abbreviates: second compound 0.03 µM, first compound 1 µM.
Where [29] appears, read: second compound 0.03 µM, first compound 3.16 µM.
Where [30] appears, read: second compound 0.03 µM, first compound 10 µM.
Where [31] appears, read: second compound 0.0949 µM, first compound 0.0316 µM.
The mark [32] stands for this setting: second compound 0.0949 µM, first compound 0.1 µM.
Setting [33] is: second compound 0.0949 µM, first compound 0.316 µM.
The mark [34] stands for this setting: second compound 0.0949 µM, first compound 1 µM.
[35] abbreviates: second compound 0.0949 µM, first compound 3.16 µM.
Setting [36] is: second compound 0.0949 µM, first compound 10 µM.
Setting [37] is: second compound 0.3 µM, first compound 0.0316 µM.
The mark [38] stands for this setting: second compound 0.3 µM, first compound 0.1 µM.
Where [39] appears, read: second compound 0.3 µM, first compound 0.316 µM.
Setting [40] is: second compound 0.3 µM, first compound 1 µM.
The mark [41] stands for this setting: second compound 0.3 µM, first compound 3.16 µM.
[42] abbreviates: second compound 0.3 µM, first compound 10 µM.

For the compound `CCC(CC)c1cc(NC2CCC(N)C2)n2nccc2n1` (stereo unspecified) + CCn1c(-c2cccnc2C(C)OC)c2c3cc(ccc31)N1CCOC(CC(NC(=O)C(C(C)C)N(C)C(=O)C3(F)CCN(C(=O)C#CC(C)(C)N(C)C)CC3)C(=O)N3CCCC(N3)C(=O)OCC(C)(C)C2)C1, the pIC50 is, setting by setting: under setting [1], more than 7.50; under setting [2], more than 7.50; under setting [3], more than 7.50; under setting [4], more than 7.50; under setting [5], more than 7.50; under setting [6], more than 7.50. Besides, the viability, T/C was 28.4% under setting [7]; 27.2% under setting [8]; 29.5% under setting [9]; 32.3% under setting [10]; 13.3% under setting [11]; 46.4% under setting [12]. Besides, the viability, T/C under setting [13] is 27.7%; the viability, T/C under setting [14] was 22.5%; the viability, T/C under setting [15] was 28.1%; the viability, T/C under setting [16] is 28.2%; the viability, T/C under setting [17] was 12.1%; the viability, T/C under setting [18] is 44.5%. For the same compound, the viability, T/C was 23.8% under setting [19]; 24.4% under setting [20]; 23.8% under setting [21]; 29.6% under setting [22]; 14.5% under setting [23]; 43.7% under setting [24]. In addition, the viability, T/C is, setting by setting: under setting [25], 21.2%; under setting [26], 22.1%; under setting [27], 22.8%; under setting [28], 25.4%; under setting [29], 12%; under setting [30], 42%. Besides, the viability, T/C by setting is: under setting [31], 20.7%; under setting [32], 15.8%; under setting [33], 22.4%; under setting [34], 24.5%; under setting [35], 11.7%; under setting [36], 45.5%. Besides, the viability, T/C under setting [37] is 15.6%; the viability, T/C under setting [38] was 20.1%; the viability, T/C under setting [39] was 20.7%; the viability, T/C under setting [40] was 24.1%; the viability, T/C under setting [41] was 12.5%; the viability, T/C under setting [42] was 48.7%.
`C[C@@H](NC(=O)c1ncnc(N)c1Cl)c1ncc(C(=O)Nc2cc(C(F)(F)F)c(Cl)cn2)s1` + CCn1c(-c2cccnc2C(C)OC)c2c3cc(ccc31)N1CCOC(CC(NC(=O)C(C(C)C)N(C)C(=O)C3(F)CCN(C(=O)C#CC(C)(C)N(C)C)CC3)C(=O)N3CCCC(N3)C(=O)OCC(C)(C)C2)C1: the pIC50 under setting [1] is more than 7.50; the pIC50 under setting [2] is more than 7.50; the pIC50 under setting [3] was more than 7.50; the pIC50 under setting [4] was more than 7.50; the pIC50 under setting [5] is more than 7.50; the pIC50 under setting [6] is more than 7.50. The viability, T/C was 32% under setting [7]; 30.9% under setting [8]; 30.3% under setting [9]; 32.5% under setting [10]; 29% under setting [11]; 37% under setting [12]. Besides, the viability, T/C was 25.3% under setting [13]; 24% under setting [14]; 28.5% under setting [15]; 25.6% under setting [16]; 25.5% under setting [17]; 26.3% under setting [18]. The viability, T/C is 26.9% under setting [19]; 23.2% under setting [20]; 23.7% under setting [21]; 22.2% under setting [22]; 24.6% under setting [23]; 23.6% under setting [24]. Moreover, the viability, T/C under setting [25] is 24.7%; the viability, T/C under setting [26] is 19.7%; the viability, T/C under setting [27] is 22.7%; the viability, T/C under setting [28] was 21.7%; the viability, T/C under setting [29] was 25.2%; the viability, T/C under setting [30] was 21%. The viability, T/C is 17.8% under setting [31]; 18.4% under setting [32]; 21.8% under setting [33]; 20.2% under setting [34]; 20.7% under setting [35]; 21.7% under setting [36]. Moreover, the viability, T/C is, setting by setting: under setting [37], 18%; under setting [38], 17.8%; under setting [39], 21.5%; under setting [40], 20%; under setting [41], 21.7%; under setting [42], 26.1%.
For the compound `CC1(C)CCC(Nc2ncc(C(F)(F)F)c(-c3c[nH]c4c(P(C)(C)=O)c(C#N)ccc34)n2)CN1` (stereo unspecified), the viability, T/C reads like this: (compound 0.003 µM) 93% [middle of 4 runs]; (compound 0.00949 µM) 78.1% [middle of 4 runs]; (compound 0.03 µM) 73.1% [middle of 4 runs]; (compound 0.0949 µM) 67.2% [middle of 4 runs]; (compound 0.3 µM) 69.9% [middle of 4 runs]. Also, the pIC50 (curve of compound) is less than 6.52.
With `CCN1CCN(Cc2ccc(Nc3ncc(F)c(-c4cc(F)c5nc(C)n(C(C)C)c5c4)n3)nc2)CC1`, the viability, T/C is, setting by setting: (compound 0.00316 µM) 93% [middle of 4 runs]; (compound 0.0316 µM) 90.8% [middle of 4 runs]; (compound 0.1 µM) 77.8% [middle of 4 runs]; (compound 0.316 µM) 78% [middle of 4 runs]; (compound 1 µM) 87.2% [middle of 4 runs]. Besides, the pIC50 (curve of compound) was less than 6.00.

In general, pIC50 refers to the negative decadic logarithm of the IC50, by convention in mol/L. In general, viability, T/C refers to the ratio of treated to control.

For the origin of these results see PubChem BioAssay AID2060901 (Molecular Pharmacology Branch, DTP, NCI, 2025).
